Inconclusive results and toxic doses are left out. Rule as the data show it: active = T/C of 150% or more; inactive = T/C below 125%.
System: L1210 leukemia ip in BDF1 mice, survival T/C
Experiment: NCI In Vivo Anticancer Drug Screen. Data for tumor model L1210 Leukemia (intraperitoneal) in B6D2F1 (BDF1) mice
Details: endpoint: mean survival time, higher = longer survival
Outline: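 Read-out is survival time, reported as the treated-group measurement over the vehicle-control measurement.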

[1] = dose: 12.5 mg/kg/injection, schedule: Q01DX009 (ip), vehicle: saline
[2] = dose: 25.0 mg/kg/injection, schedule: Q01DX009 (ip), vehicle: saline
[3] = dose: 50.0 mg/kg/injection, schedule: Q01DX001 (ip), vehicle: carboxymethylcellulose (CMC)
[4] = dose: 50.0 mg/kg/injection, schedule: Q01DX009 (ip), vehicle: saline
[5] = dose: 25.0 mg/kg/injection, schedule: Q01DX009 (ip), vehicle: Klucel (hydroxypropylcellulose) (HPC)
[6] = dose: 100.0 mg/kg/injection, schedule: Q04DX002 (ip), vehicle: Klucel (hydroxypropylcellulose) (HPC)
[7] = dose: 200.0 mg/kg/injection, schedule: Q04DX002 (ip), vehicle: Klucel (hydroxypropylcellulose) (HPC)
[8] = dose: 12.5 mg/kg/injection, schedule: Q04DX003 (ip), vehicle: saline
[9] = dose: 25.0 mg/kg/injection, schedule: Q04DX003 (ip), vehicle: saline
[10] = dose: 50.0 mg/kg/injection, schedule: Q04DX003 (ip), vehicle: saline
[11] = dose: 400.0 mg/kg/injection, schedule: Q04DX002 (ip), vehicle: Klucel (hydroxypropylcellulose) (HPC)
[12] = dose: 100.0 mg/kg/injection, schedule: Q04DX002 (ip), vehicle: saline with Tween-80
[13] = dose: 200.0 mg/kg/injection, schedule: Q04DX002 (ip), vehicle: saline with Tween-80
[14] = dose: 100.0 mg/kg/injection, schedule: Q01DX009 (ip), vehicle: saline with Tween-80
[15] = dose: 100.0 mg/kg/injection, schedule: Q01DX009 (ip), vehicle: Klucel (hydroxypropylcellulose) (HPC)
[16] = dose: 200.0 mg/kg/injection, schedule: Q01DX009 (ip), vehicle: saline with Tween-80

Measured: T/C

COC(=O)[C@@H]1c2cc3c(c(O)c2[C@@H](OC)C[C@@]1(C)O)C(=O)c1c(O)cc2c(c1C3=O)OC1O[C@@]2(C)[C@H](O)[C@@H](N(C)C)[C@@H]1O
inactive: dose: 3.12 mg/kg/injection, schedule: Q01DX015 (ip), vehicle: carboxymethylcellulose (CMC) 104 % of control | dose: 6.25 mg/kg/injection, schedule: Q01DX009 (ip), vehicle: saline 106 % of control | dose: 6.25 mg/kg/injection, schedule: Q01DX015 (ip), vehicle: carboxymethylcellulose (CMC) 108 % of control | [1] 112 % of control | dose: 12.5 mg/kg/injection, schedule: Q01DX015 (ip), vehicle: carboxymethylcellulose (CMC) 120 % of control | [2] 109 % of control | [3] 105 % of control | [4] 112 % of control | dose: 50.0 mg/kg/injection, schedule: Q01DX015 (ip), vehicle: carboxymethylcellulose (CMC) 122 % of control | dose: 100.0 mg/kg/injection, schedule: Q01DX001 (ip), vehicle: carboxymethylcellulose (CMC) 117 % of control

CCCCCCCCCCCc1nc(N)nc(NCCc2ccccc2)n1
inactive: dose: 12.5 mg/kg/injection, schedule: Q01DX009 (ip), vehicle: Klucel (hydroxypropylcellulose) (HPC) 95 % of control | [5] 89 % of control | dose: 50.0 mg/kg/injection, schedule: Q04DX002 (ip), vehicle: Klucel (hydroxypropylcellulose) (HPC) 87 % of control | [6] 93 % of control | [7] 97 % of control

Cc1nc(Br)c2cnccn12
inactive: [1] 106 % of control | [8] 98 % of control | [2] 103 % of control | [9] 97 % of control | [10] 97 % of control

NC(=O)Nc1ccccc1F
inactive: [6] 106 % of control | [7] 100 % of control | [11] 100 % of control

ClCCN(CCCl)c1ccc(CNCCCNCc2ccc(N(CCCl)CCCl)cc2Cl)c(Cl)c1
inactive: [3] 93 % of control

c1cc(Cc2ccc3c(c2)OCO3)c[nH]1
inactive: dose: 50.0 mg/kg/injection, schedule: Q04DX002 (ip), vehicle: saline with Tween-80 103 % of control | [12] 110 % of control | [13] 100 % of control

COc1ccc(CCNC2C3CC4CC(C3)CC2C4)cc1OC (stereo not drawn)
inactive: dose: 100.0 mg/kg/injection, schedule: Q04DX003 (ip), vehicle: saline 94 % of control

CCOc1ccc(NC(=O)NCCBr)cc1
inactive: dose: 50.0 mg/kg/injection, schedule: Q01DX009 (ip), vehicle: saline with Tween-80 94 % of control | [14] 94 % of control

CCN(Cc1ccccc1)C(=S)Nc1ccccc1
inactive: [6] 96 % of control | [7] 108 % of control | [11] 101 % of control

Cc1ccc(S(=O)(=O)OCCCCOS(=O)(=O)c2ccc(C)cc2)cc1
inactive: [15] 99 % of control | dose: 100.0 mg/kg/injection, schedule: Q04DX003 (ip), vehicle: Klucel (hydroxypropylcellulose) (HPC) 91 % of control | dose: 200.0 mg/kg/injection, schedule: Q01DX009 (ip), vehicle: Klucel (hydroxypropylcellulose) (HPC) 89 % of control | dose: 200.0 mg/kg/injection, schedule: Q04DX003 (ip), vehicle: Klucel (hydroxypropylcellulose) (HPC) 100 % of control | dose: 400.0 mg/kg/injection, schedule: Q01DX009 (ip), vehicle: Klucel (hydroxypropylcellulose) (HPC) 100 % of control | dose: 400.0 mg/kg/injection, schedule: Q04DX003 (ip), vehicle: Klucel (hydroxypropylcellulose) (HPC) 105 % of control

FC1(F)SC2C3CCC(C3)C2C1(F)F (stereo not drawn)
inactive: dose: 6.25 mg/kg/injection, schedule: Q04DX002 (ip), vehicle: saline with Tween-80 95 % of control | dose: 12.5 mg/kg/injection, schedule: Q04DX002 (ip), vehicle: saline with Tween-80 95 % of control | dose: 25.0 mg/kg/injection, schedule: Q04DX002 (ip), vehicle: saline with Tween-80 93 % of control

CCCCCCCCCCCC(=O)[O][Sn]([CH2]C)([CH2]C)[O]C(=O)CCCCCCCCCCC
inactive: dose: 6.25 mg/kg/injection, schedule: Q04DX003 (ip), vehicle: saline 112 % of control | dose: 8.75 mg/kg/injection, schedule: Q01DX009 (ip), vehicle: saline with Tween-80 98 % of control | dose: 12.5 mg/kg/injection, schedule: Q01DX001 (ip), vehicle: saline 103 % of control | [8] 105 % of control | dose: 17.5 mg/kg/injection, schedule: Q01DX009 (ip), vehicle: saline with Tween-80 121 % of control | dose: 25.0 mg/kg/injection, schedule: Q01DX001 (ip), vehicle: saline 109 % of control | [9] 112 % of control | dose: 35.0 mg/kg/injection, schedule: Q04DX003 (ip), vehicle: acetone 106 % of control

CC1=CC(C)(C)NC(=S)N1c1ccc(N(C)C)cc1
inactive: dose: 112.0 mg/kg/injection, schedule: Q01DX Z (ip), vehicle: methylcellulose (MC) 101 % of control | dose: 166.0 mg/kg/injection, schedule: Q01DX Z (ip), vehicle: methylcellulose (MC) 96 % of control | dose: 250.0 mg/kg/injection, schedule: Q01DX Z (ip), vehicle: methylcellulose (MC) 94 % of control | dose: 375.0 mg/kg/injection, schedule: Q01DX Z (ip), vehicle: methylcellulose (MC) 96 % of control

CC12CCC(O)CC1CCC1C3CCCC(=O)C3CCC12 (stereo not drawn)
inactive: dose: 50.0 mg/kg/injection, schedule: Q01DX009 (sc), vehicle: steriod suspending solution 103 % of control | dose: 100.0 mg/kg/injection, schedule: Q01DX009 (sc), vehicle: steriod suspending solution 97 % of control | dose: 200.0 mg/kg/injection, schedule: Q01DX009 (sc), vehicle: steriod suspending solution 94 % of control

CC(C)([NH-])CO.CC(C)([NH-])CO.[Cl][Cd][Cl]
inactive: dose: 3.13 mg/kg/injection, schedule: Q01DX009 (ip), vehicle: saline sonified 98 % of control | dose: 5.0 mg/kg/injection, schedule: Q01DX009 (ip), vehicle: saline 96 % of control | dose: 6.25 mg/kg/injection, schedule: Q01DX009 (ip), vehicle: saline sonified 96 % of control | dose: 6.25 mg/kg/injection, schedule: Q04DX003 (ip), vehicle: saline sonified 95 % of control | dose: 10.0 mg/kg/injection, schedule: Q01DX009 (ip), vehicle: saline 100 % of control | dose: 10.0 mg/kg/injection, schedule: Q04DX003 (ip), vehicle: alcohol 93 % of control | dose: 12.5 mg/kg/injection, schedule: Q01DX009 (ip), vehicle: saline sonified 98 % of control | dose: 12.5 mg/kg/injection, schedule: Q04DX003 (ip), vehicle: saline sonified 92 % of control | dose: 20.0 mg/kg/injection, schedule: Q04DX003 (ip), vehicle: alcohol 89 % of control

CN(C)c1ccc(N=Nc2ccncc2)cc1
inactive: [5] 98 % of control | dose: 50.0 mg/kg/injection, schedule: Q01DX009 (ip), vehicle: Klucel (hydroxypropylcellulose) (HPC) 98 % of control | [15] 94 % of control

Cc1ccc(C(=O)O)cc1
inactive: [14] 90 % of control | [16] 88 % of control

O=C1OC(=O)c2ccc([N+](=O)[O-])c3c([N+](=O)[O-])ccc1c23
inactive: [14] 88 % of control | [16] 95 % of control | dose: 400.0 mg/kg/injection, schedule: Q01DX009 (ip), vehicle: saline with Tween-80 91 % of control

CC(C#N)C(N)=O (stereo not drawn)
inactive: [8] 97 % of control | [9] 94 % of control | [10] 105 % of control

COC1=CC23CCCN2CCc2cc4c(cc2C3C1O)OCO4 (stereo not drawn)
inactive: [2] 93 % of control | [4] 103 % of control | dose: 55.0 mg/kg/injection, schedule: Q01DX009 (ip), vehicle: saline 98 % of control | dose: 100.0 mg/kg/injection, schedule: Q01DX009 (ip), vehicle: saline 117 % of control | dose: 110.0 mg/kg/injection, schedule: Q01DX009 (ip), vehicle: saline 107 % of control | dose: 220.0 mg/kg/injection, schedule: Q01DX009 (ip), vehicle: saline 102 % of control

CC(C)C1CCC2(CC1)CCN(CCCN(C)C)CC2
inactive: dose: 50.0 mg/kg/injection, schedule: Q01DX001 (ip), vehicle: saline 93 % of control | dose: 100.0 mg/kg/injection, schedule: Q01DX001 (ip), vehicle: saline 113 % of control

Cc1ccccc1NC(=S)NCCC(=O)O
inactive: [12] 105 % of control | [13] 97 % of control | dose: 400.0 mg/kg/injection, schedule: Q04DX002 (ip), vehicle: saline with Tween-80 97 % of control

From PubChem BioAssay AID248 (DTP/NCI, 2004)
